Measurements reported in patent US20240140944A1, “NOVEL NAPHTHYRIDINONE DERIVATIVE HAVING INHIBITORY ACTIVITY AGAINST ECTONUCLEOTIDE PYROPHOSPHATASE-PHOSPHODIESTERASE AND USE THEREOF” (TXINNO BIOSCIENCE INC., priority 2020, published 2024).
Counter-ions that a name gives are not always drawn.

How the values were obtained:
[1] = molecular target: T1, human recombinant ENPP1 enzymes (Homo sapiens, UniProt P22413); test: ENPP1 Enzyme Assay with cGAMP Substrate (AMP-Glo); assay type: biochemical; conditions: human recombinant ENPP1 3 ng/reaction, cGAMP 5 μM, 37° C. 90 minutes, average of two or more tests; read-out: Enzymatic activity IC50
T1 construct: purchased R & D systems
T1 sequence (P22413 1-925): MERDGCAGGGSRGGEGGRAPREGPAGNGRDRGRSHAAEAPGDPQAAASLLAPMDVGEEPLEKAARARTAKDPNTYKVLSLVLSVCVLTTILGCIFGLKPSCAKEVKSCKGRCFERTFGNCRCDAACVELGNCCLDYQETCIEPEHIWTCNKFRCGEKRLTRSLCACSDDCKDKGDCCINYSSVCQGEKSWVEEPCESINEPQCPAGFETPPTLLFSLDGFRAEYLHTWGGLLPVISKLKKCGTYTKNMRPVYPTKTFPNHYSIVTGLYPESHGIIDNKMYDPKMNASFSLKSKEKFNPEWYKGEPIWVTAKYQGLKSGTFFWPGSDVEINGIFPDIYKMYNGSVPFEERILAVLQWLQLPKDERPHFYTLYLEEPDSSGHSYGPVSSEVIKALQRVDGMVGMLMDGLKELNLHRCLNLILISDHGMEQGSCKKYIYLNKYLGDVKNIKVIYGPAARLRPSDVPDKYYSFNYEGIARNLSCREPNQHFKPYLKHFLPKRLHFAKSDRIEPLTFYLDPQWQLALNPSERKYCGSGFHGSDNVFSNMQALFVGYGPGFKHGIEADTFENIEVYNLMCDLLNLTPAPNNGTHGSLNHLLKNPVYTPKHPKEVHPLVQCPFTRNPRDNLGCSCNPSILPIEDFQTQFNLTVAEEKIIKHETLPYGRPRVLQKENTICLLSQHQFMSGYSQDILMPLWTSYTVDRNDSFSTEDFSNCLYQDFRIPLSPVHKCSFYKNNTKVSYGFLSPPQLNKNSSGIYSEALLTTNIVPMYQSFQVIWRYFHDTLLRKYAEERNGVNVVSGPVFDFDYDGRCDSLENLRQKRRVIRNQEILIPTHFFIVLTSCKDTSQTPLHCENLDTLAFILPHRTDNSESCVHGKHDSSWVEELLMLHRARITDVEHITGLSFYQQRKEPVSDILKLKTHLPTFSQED
Method: ENPP1 hydrolyzes nucleotides or nucleotide derivatives to produce nucleoside-5′-monophosphate and pyrophosphate. In addition, ENPP1 hydrolyzes 2′,3′-cGAMP to produce 5′-adenosine monophosphate (AMP) and 5′-guanosine monophosphate (GMP). AMP produced from the reaction is measured using the AMP-Glo® kit (Promega). The AMP-Glo® kit contains two reagents. The first reagent terminates the AMP-producing enzymatic reaction, removes ATP and converts the produced AMP into ADP. The second reagent converts ADP to ATP which is used to generate luminescence in the luciferase reaction. The amount of luminescence measured is proportional to the amount of AMP produced by ENPP1.
The final reaction mixture contains 50 mM Tris (pH 8.5) buffer, 250 mM NaCl, 0.5 mM CaCl2), 1 μM ZnCl2, 5% glycerol and 1% DMSO. Serially diluted ENPP1 inhibitors (typically in the range of 10 μM to 0.5 nM) were pre-stored with human recombinant ENPP1 enzymes (R & D systems) at 3 ng/reaction and room temperature (RT) for 5 to 10 minutes. The reaction was initiated by addition of cGAMP (at a final concentration of 5 μM) and reacted at 37° C. for 90 minutes. At the end of the reaction, 10 μl of the AMP-Glo first reagent was added to stop the reaction and the result was stored at room temperature for 1 hour. After storage, 20 μl of an AMP detection solution (a mixture of AMP-Glo II reagent and Kinase-Glo at a ratio of 1:100) was added and stored at room temperature for 1 hour. Luminescence signals were measured using a Victor® plate reader (Perkin Elmer). The maximal activity control (containing enzymes and substrates in the presence of 1% DMSO; MAX) and the minimal activity control (containing substrates and 1% DMSO; MIN) were evaluated simultaneously. In each experiment, serially diluted reference ENPP1 inhibitors were tested as well. IC50, indicating % residual activity versus compound concentration was determined by fitting inhibition curves using the 3-parameter analysis of GraphPad Prism® software. Serially diluted samples of one compound were tested two or more times and an average IC50 of each compound was calculated.

[2] = tested on: interferon regulatory factor 3 (IRF3) in HCT116-Dual cells; test: HCT116-Dual Cell Luciferase Assay (ISG54 promoter, IRF3 activity); assay type: cell-based; conditions: ENPP1 inhibitor usually 10 μM plus cGAMP 10 μM, 48 hours, Lucia luciferase
Description: HCT116-Dual™ cells express genes encoding luciferase secreted under the control of the interferon-stimulated gene 54 (ISG54) promoter along with five interferon-stimulated response elements. The HCT116-Dual™ cell line was used to measure and monitor the activity of interferon regulatory factor 3 (IRF3), which induces production of type I interferon and relates to downstream signaling, and Lucia secreted in the culture medium was used to generate luminescence in a luciferase reaction.
HCT116-Dual™ cells were cultured at 2×10^4 cells/well (93.4 μL) in a 96-well plate for one day in a DMEM medium containing 10% FBS and 25 mM HEPES (pH 7.2-7.5). The cells were treated with 3.3 μL of ENPP1 inhibitor (usually 10 μM) and then 3.3 μL of cGAMP (10 μM) to set the final volume to 100 μL (The final fraction of DMSO was 0.1%). The cells treated with ENPP1 inhibitor and cGAMP were cultured at 37° C. for 48 hours and 50 μL of Quanti-Luc reaction solution was added to 20 μL of cell culture medium to measure luciferase activity. The increase in interferon regulatory factor 3 (IRF3) by the compound compared to cGAMP was determined as fold.

Row | IC50 [1] [µM] | Molecule | Cellular activity: increase in IRF3 by the compound compared to cGAMP, as fold [2]
1 | 1 to 10 | CNCc1ccc(-c2ccnc3[nH]c(=O)ccc23)cc1F.Cl [Example 23, 5-(3-fluoro-4-((methylamino)methyl)phenyl)-1,8-naphthyridin-2(1H)-one hydrochloride] | B (1< Fold <2)
2 | < 1 | CCN(Cc1ccc(-c2ccnc3[nH]c(=O)ccc23)c(F)c1)S(N)(=O)=O.Cl [Example 56, N-ethyl-N-(3-fluoro-4-(7-oxo-7,8-dihydro-1,8-naphthyridin-4-yl)benzyl)sulfamide hydrochloride] | B (1< Fold <2)
3 | < 1 | CC(NS(N)(=O)=O)c1ccc(-c2ccnc3[nH]c(=O)ccc23)cc1.Cl (stereo not drawn) [Example 45, N-(1-(4-(7-oxo-7,8-dihydro-1,8-naphthyridin-4-yl)phenyl)ethyl)sulfamide hydrochloride] | B (1< Fold <2)
4 | < 1 | CC(N)c1ccc(-c2ccnc3[nH]c(=O)ccc23)cc1.Cl (stereo not drawn) [Example 14, 5-(4-(1-aminoethyl)phenyl)-1,8-naphthyridin-2(1H)-one hydrochloride] | B (1< Fold <2)
5 | – | NS(=O)(=O)NCc1ccc(-c2ccnc3[nH]c(=O)ccc23)cc1F [Example 41, N-(2-fluoro-4-(7-oxo-7,8-dihydro-1,8-naphthyridin-4-yl)benzyl)sulfamide] | B (1< Fold <2)
6 | < 1 | C[C@@H](N)c1ccc(-c2ccnc3[nH]c(=O)ccc23)cc1.Cl [Example 15, (R)-5-(4-(1-aminoethyl)phenyl)-1,8-naphthyridin-2(1H)-one hydrochloride] | B (1< Fold <2)
7 | < 1 | NS(=O)(=O)NCc1cc(-c2ccnc3[nH]c(=O)ccc23)ccc1F [Example 38, N-(2-fluoro-5-(7-oxo-7,8-dihydro-1,8-naphthyridin-4-yl)benzyl)sulfamide hydrochloride] | B (1< Fold <2)
8 | < 1 | NS(=O)(=O)Nc1ccc(Nc2ccnc3[nH]c(=O)ccc23)cc1 [Example 97, N-(4-((7-oxo-7,8-dihydro-1,8-naphthyridin-4-yl)amino)phenyl)sulfamide dihydrochloride] | B (1< Fold <2)
9 | < 1 | NS(=O)(=O)Nc1cccc(-c2ccnc3[nH]c(=O)ccc23)c1 [Example 35, N-(3-(7-oxo-7,8-dihydro-1,8-naphthyridin-4-yl)phenyl)sulfamide hydrochloride] | B (1< Fold <2)
10 | – | Cl.Nc1ccc(F)c(-c2ccnc3[nH]c(=O)ccc23)c1 [Example 8] | B (1< Fold <2)
11 | < 1 | NS(=O)(=O)NCc1cccc(Nc2ccnc3[nH]c(=O)ccc23)c1 [Example 89, N-(3-((7-oxo-7,8-dihydro-1,8-naphthyridin-4-yl)amino)benzyl)sulfamide dihydrochloride] | –
12 | < 1 | NS(=O)(=O)N1CCC2(CCN(c3ccnc4[nH]c(=O)ccc34)CC2)C1 [Example 126, 8-(7-oxo-7,8-dihydro-1,8-naphthyridin-4-yl)-2,8-diazaspiro[4,5]decane-2-sulfamide] | –
13 | < 1 | NCCC1CCN(c2ccnc3[nH]c(=O)ccc23)CC1 [Example 115, 5-(4-(2-aminoethyl)piperidin-1-yl)-1,8-naphthyridin-2(1H)-one hydrochloride] | –
14 | > 10 | CC(C)N(Cc1ccc(-c2ccnc3[nH]c(=O)ccc23)c(F)c1)S(N)(=O)=O [Example 57, N-(3-fluoro-4-(7-oxo-7,8-dihydro-1,8-naphthyridin-4-yl)benzyl)-N-isopropyl)sulfamide hydrochloride] | –
15 | < 1 | NCc1cc(Nc2ccnc3[nH]c(=O)ccc23)ccc1F [Example 78, 5-((3-aminomethyl)-4-fluorophenyl)amino)-1,8-naphthyridin-2(1H)-one dihydrochloride] | –
16 | 1 to 10 | CC(C)(C)OC(=O)NCc1cccc(-c2ccnc3[nH]c(=O)ccc23)c1 [Example 2, tert-butyl(3-(7-oxo-7,8-dihydro-1,8-naphthyridin-4-yl)benzyl)carbamate] | –
17 | < 1 | C[C@H](c1ccc(-c2ccnc3[nH]c(=O)ccc23)cc1)N(C)S(N)(=O)=O [Example 59, (R)-(N-methyl-N-(1-(4-(7-oxo-7,8-dihydro-1,8-naphthyridin-4-yl)phenyl)ethyl)sulfamide hydrochloride] | –
18 | < 1 | O=c1ccc2c(-c3ccc(CP(=O)(O)O)cc3)ccnc2[nH]1 [Example 75, (4-(7-oxo-7,8-dihydro-1,8-naphthyridin-4-yl)benzyl)phosphonic acid] | –
19 | – | 5-(7-oxo-5,6,7,8-tetrahydro-1,8-naphthyridin-4-yl)isoindoline-2-sulfamide hydrochloride [Example 143] | B (1< Fold <2)
20 | > 10 | O=c1ccc2c(Nc3ccc4c(c3)CNCCC4)ccnc2[nH]1 [Example 87, 5-((2,3,4,5-tetrahydro-1H-benzo[c]azepin-8-yl)amino)-1,8-naphthyridin-2(1H)-one dihydrochloride] | –
21 | 1 to 10 | NS(=O)(=O)Nc1ccc(-c2ccnc3[nH]c(=O)ccc23)cc1 [Example 39, N-(4-(7-oxo-7,8-dihydro-1,8-naphthyridin-4-yl)phenyl)sulfamide] | –
22 | < 1 | NS(=O)(=O)NC1CCN(c2ccnc3[nH]c(=O)ccc23)CC1 [Example 123, N-(1-(7-oxo-7,8-dihydro-1,8-naphthyridin-4-yl)piperidin-4-yl)sulfamide] | –

Row | Molecule | IC50 [1] [µM] | Cellular activity: increase in IRF3 by the compound compared to cGAMP, as fold [2]
23 | NCCc1ccc(F)c(Nc2ccnc3[nH]c(=O)ccc23)c1 [Example 79, 5-((5-(2-aminoethyl)-2-fluorophenyl)amino)-1,8-naphthyridin-2(1H)-one dihydrochloride] | 1 to 10 | B (1< Fold <2)
24 | CCOP(=O)(O)Cc1ccc(-c2ccnc3[nH]c(=O)ccc23)cc1 [Example 74, ethylhydrogen(4-(7-oxo-7,8-dihydro-1,8-naphthyridin-4-yl)benzyl)phosphonate] | 1 to 10 | –
